pIC50: −log10 of the molar value.
Target: T1, rat liver FBPase (Rattus norvegicus, UniProt P19112)
T1 construct: made in house; host or cells: E. coli BL21
T1 sequence (P19112 2-363 limits assumed): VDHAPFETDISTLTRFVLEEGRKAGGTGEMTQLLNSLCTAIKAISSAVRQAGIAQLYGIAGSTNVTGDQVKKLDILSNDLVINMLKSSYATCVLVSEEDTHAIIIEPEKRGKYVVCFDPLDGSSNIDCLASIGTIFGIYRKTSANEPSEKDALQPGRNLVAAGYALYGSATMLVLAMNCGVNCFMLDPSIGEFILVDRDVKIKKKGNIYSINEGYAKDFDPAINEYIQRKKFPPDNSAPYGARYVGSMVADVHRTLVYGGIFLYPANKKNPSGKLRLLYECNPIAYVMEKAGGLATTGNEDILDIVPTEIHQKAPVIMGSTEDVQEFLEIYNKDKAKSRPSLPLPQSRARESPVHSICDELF
Assay: Inhibition of Rat Liver FBPase
Format: biochemical
Details: assay identical to human liver FBPase; read-out: IC50 for AMP, rat liver FBPase
Experimental: Recombinant FBPase is purified as described (El-Maghrabi, M. R., and Pilkis, S. J. (1991) Biochem. Biophys. Res. Commun. 176, 137-144) The enzyme assay is identical to that described above for human liver FBPase. The IC50 for AMP is 20 μM.

pIC50	SMILES
4.70	Nc1ncnc2c1ncn2[C@@H]1O[C@H](COP(=O)(O)O)[C@@H](O)[C@H]1O [AMP, reference compound]

Test system: human liver microsomes (P450 isozymes CYP3A4, CYP1A2, CYP2C9)
Assay: Identification of the P450 Isozyme Involved in the Activation
Format: in vitro ADME
Details: 0-100 μM P450 isozyme inhibitor
Experimental: Prodrugs are evaluated for human microsome-catalyzed conversion to parent compound in the absence and presence of specific inhibitors of three major P450 isozymes: ketoconazole (CYP3A4), furafylline (CYP1A2), and sulfaphenazole (CYP2C9).
Methods: Reaction (0.5 ml@37° C.) consist of 0.2 M KH2PO4, 13 mM glucose-6-phosphate, 2.2 mM NADP^+, 1 unit of glucose-6-phosphate dehydrogenase, 0-2.5 mg/ml human microsomal protein (In Vitro Technologies, In.), […], and 0-100 μM P450 isozyme inhibitor. Reactions are stopped by addition of methanol to a concentration of 60%, filtered ([…]), and lyophilized. Samples are resuspended in HPLC buffer (10 mM phosphate pH 5.5, 2.5 mM octyl-triethylammonium), loaded onto a YMC C8 HPLC column (250×4.6 mm), and eluted with a methanol gradient to 80%. Formuation of parent drug is confirmed by co-elution with an authentic parent drug standard.
Results: Prodrug is converted readily to parent drug in human liver microsomes.

SMILES	inhibition of formation of parent drug from prodrug by P450 isozyme inhibitor
CC(=O)N1CCN(c2ccc(OCC3COC(Cn4ccnc4)(c4ccc(Cl)cc4Cl)O3)cc2)CC1 (stereo not drawn) [Ketoconazole]	inhibit the formation of parent drugs in a dose-dependent fashion
Cc1nc2c([nH]1)c(=O)n(C)c(=O)n2Cc1ccco1 [fusafylline]	no significant inhibition
Nc1ccc(S(=O)(=O)Nc2ccnn2-c2ccccc2)cc1 [sulfaphenazole]	no significant inhibition

Target: T2, human liver FBPase (Homo sapiens, UniProt P09467)
T2 sequence (P09467 2-338 limits assumed): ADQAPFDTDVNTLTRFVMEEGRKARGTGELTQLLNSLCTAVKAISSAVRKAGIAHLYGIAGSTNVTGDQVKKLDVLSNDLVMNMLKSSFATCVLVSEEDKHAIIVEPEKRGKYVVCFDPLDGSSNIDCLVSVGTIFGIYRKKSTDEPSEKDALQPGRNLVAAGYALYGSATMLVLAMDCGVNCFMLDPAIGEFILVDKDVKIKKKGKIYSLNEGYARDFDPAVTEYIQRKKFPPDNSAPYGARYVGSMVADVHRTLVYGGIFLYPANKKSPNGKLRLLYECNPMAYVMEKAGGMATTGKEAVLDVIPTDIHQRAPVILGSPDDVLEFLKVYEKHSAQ
Assay: Inhibition of Human Liver FBPase
Details: not given

pIC50	SMILES
5.74	Nc1c(-c2ccc(P(=O)(O)O)o2)cc([N+](=O)[O-])cc1[N+](=O)[O-] [Compound 1.02]
6.30	COc1ccc(Cl)cc1-c1ccc(P(=O)(O)O)o1 [Compound 1.03]
5.66	O=P(O)(O)c1ccc(-c2ccc(F)cc2)o1 [Compound 2.01, 5-(4-Fluorophenyl)-2-furanphosphonic Acid]
5.52	O=P(O)(O)c1ccc(-c2ccc(Cl)cc2Cl)o1 [Compound 2.02]
5.26	Nc1cc(-c2ccc(P(=O)(O)O)o2)ccc1Br [Compound 3.01, 5-(4-Bromo-3-aminophenyl)-2-furanphosphonic Acid]
5.52	COc1ccc(CNc2ccccc2)cc1-c1ccc(P(=O)(O)O)o1 [Compound 4.46]
6.85	COc1ccc(CNc2ccc(O)cc2)cc1-c1ccc(P(=O)(O)O)o1 [Compound 4.48]
6.49	COc1ccc(CNc2ccc(N)cc2)cc1-c1ccc(P(=O)(O)O)o1 [Compound 4.49]
5.19	COc1ccc(CNc2ccc(NC(C)=O)cc2)cc1-c1ccc(P(=O)(O)O)o1 [Compound 4.50]
4.92	COc1ccc(CN(C(C)=O)c2ccc(N)cc2)cc1-c1ccc(P(=O)(O)O)o1 [Compound 4.51]
5.40	O=C(NCP(=O)(O)O)c1cc([N+](=O)[O-])cc([N+](=O)[O-])c1 [Compound 8.14]
5.55	COc1cc(Cl)ccc1C(=O)OCP(=O)(O)O [Compound 11.01, Phosphonomethyl 4-Chloro-2-methoxybenzoate]
5.38	COc1c(Br)cccc1C(=O)OCP(=O)(O)O [Compound 12.01, Phosphonomethyl 3-Bromo-2-methoxybenzoate]
4.96	COc1cc(COCP(=O)(O)O)ccc1Br [Compound 13.01, 4-Bromo-3-methoxyphenylmethoxymethylphosphonic acid]

SMILES	pIC50
O=[N+]([O-])c1cc(-c2ccc(P(=O)(O)O)o2)cc([N+](=O)[O-])c1 [Compound 1.01, 5-(3,5-Dinitrophenyl)-2-furanphosphonic Acid]	6.51
O=C(NCP(=O)(O)O)c1ccc(Br)o1 [Compound 8.01, N-(Phosphonomethyl)-5-bromofuran-2-carboxamide]	5.40
O=C(OCP(=O)(O)O)c1ccc(Br)o1 [Compound 11.02]	5.19
O=[N+]([O-])c1cc(COCP(=O)(O)O)cc([N+](=O)[O-])c1 [Compound 13.02]	5.05
O=P(O)(O)C#Cc1ccccc1 [Compound 16.01, 1-Phosphono-2-phenylacetylene]	4.05

Same assay, conditions: read-out: IC50 for AMP, human liver FBPase; text value for reference AMP

pIC50	SMILES
6.00	Nc1ncnc2c1ncn2[C@@H]1O[C@H](COP(=O)(O)O)[C@@H](O)[C@H]1O [AMP, reference compound]

— patent US7371739B2, “Aryl fructose-1,6-bisphosphatase inhibitors” (Metabasis Therapeutics, Inc., priority 2000, dated 2008)
